Drawing on publication PMC10004634 (PLOS ONE, 2023), this text covers remaining binding for four molecules.

What all share (experiment): biochemical
Common to all, as to set-up: KINOMEscan scanMAX competition binding, DNA-tagged kinases, qPCR read-out, percent control at 300 nM
In general terms: In qPCR the cycle at which signal appears reflects the starting amount.

One assay addresses T1, ABL1-nonphosphorylated (Homo sapiens, UniProt P00519).
T1 construct: nonphosphorylated
The following applies: read-out: Percent control / Acalabrutinib.

Another assay concerns the target CDK3 (Homo sapiens, UniProt Q00526). The following applies: read-out: Percent control / Acalabrutinib.
Another assay addresses CDK9 (Homo sapiens, UniProt P50750). The following applies: read-out: Percent control / Acalabrutinib.
The target of another assay is CSNK1A1 (Homo sapiens, UniProt P48729). The following applies: read-out: Percent control / Acalabrutinib.
The next assay deals with SIK2 (Homo sapiens, UniProt Q9H0K1). As to conditions: read-out: Percent control / Acalabrutinib.
Another assay has as its target T2, p38-gamma (Homo sapiens, UniProt P53778).
T2 construct: gene MAPK12
The following applies: read-out: Percent control / Acalabrutinib.

The target of another assay is ALK (Homo sapiens, UniProt Q9UM73). As to conditions: read-out: Percent control / Ibrutinib.
Another assay concerns the target MYO3B (Homo sapiens, UniProt Q8WXR4). The following applies: read-out: Percent control / Ibrutinib.
Another assay concerns the target EGFR(G719C) (Homo sapiens, UniProt P00533, G719C). As to conditions: read-out: Percent control / Tirabrutinib.
The next assay concerns the target EGFR(L747-T751del,Sins) (Homo sapiens, UniProt P00533, DEL747-750/T751S). As to conditions: read-out: Percent control / Tirabrutinib.
The next assay has as its target MARK1 (Homo sapiens, UniProt Q9P0L2). The following applies: read-out: Percent control / Tirabrutinib.
The target in the next assay is TLK2 (Homo sapiens, UniProt Q86UE8). As to conditions: read-out: Percent control / Tirabrutinib.
In a further assay the target is T3, YES (Homo sapiens, UniProt P07947).
T3 construct: gene YES1
The following applies: read-out: Percent control / Tirabrutinib.

The target of a further assay is T4, CDC2L5 (Homo sapiens, UniProt Q14004).
T4 construct: gene CDK13
The following applies: read-out: Percent control / Zanubrutinib.

The target in another assay is T5, MEK6 (Homo sapiens, UniProt P52564).
T5 construct: gene MAP2K6
As to conditions: read-out: Percent control / Zanubrutinib.

The next assay addresses MYLK2 (Homo sapiens, UniProt Q9H1R3). As to conditions: read-out: Percent control / Zanubrutinib.
A further assay concerns the target T6, PCTK1 (Homo sapiens, UniProt Q00536).
T6 construct: gene CDK16
As to conditions: read-out: Percent control / Zanubrutinib.

Another assay concerns the target PLK1 (Homo sapiens, UniProt P53350). As to conditions: read-out: Percent control / Zanubrutinib.
The next assay addresses PLK2 (Homo sapiens, UniProt Q9NYY3). As to conditions: read-out: Percent control / Zanubrutinib.
For the next assay, the target named is PRKG2 (Homo sapiens, UniProt Q13237). As to conditions: read-out: Percent control / Zanubrutinib.
For another assay, the target named is T7, SIK (Homo sapiens, UniProt P57059).
T7 construct: gene SIK1
T7 sequence (P57059 whole entry): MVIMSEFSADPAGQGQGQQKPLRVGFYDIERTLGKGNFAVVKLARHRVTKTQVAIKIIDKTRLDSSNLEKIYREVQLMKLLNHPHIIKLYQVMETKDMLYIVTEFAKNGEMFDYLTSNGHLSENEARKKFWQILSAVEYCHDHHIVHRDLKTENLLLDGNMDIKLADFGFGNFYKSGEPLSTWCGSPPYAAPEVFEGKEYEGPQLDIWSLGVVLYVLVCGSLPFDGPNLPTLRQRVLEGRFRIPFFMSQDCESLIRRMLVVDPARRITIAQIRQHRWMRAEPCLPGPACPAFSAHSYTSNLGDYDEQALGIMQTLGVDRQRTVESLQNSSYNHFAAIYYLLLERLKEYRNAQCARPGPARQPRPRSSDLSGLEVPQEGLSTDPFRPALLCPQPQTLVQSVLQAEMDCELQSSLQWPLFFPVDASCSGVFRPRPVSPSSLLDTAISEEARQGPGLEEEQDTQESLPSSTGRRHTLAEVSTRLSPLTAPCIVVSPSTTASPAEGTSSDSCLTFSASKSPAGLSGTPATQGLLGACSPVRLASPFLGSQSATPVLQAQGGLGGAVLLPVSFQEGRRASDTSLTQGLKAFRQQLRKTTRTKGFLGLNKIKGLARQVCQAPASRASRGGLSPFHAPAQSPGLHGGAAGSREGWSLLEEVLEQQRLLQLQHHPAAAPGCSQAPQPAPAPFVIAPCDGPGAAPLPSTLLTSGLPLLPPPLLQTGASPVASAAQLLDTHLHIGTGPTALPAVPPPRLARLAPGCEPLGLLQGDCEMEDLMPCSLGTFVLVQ
The following applies: read-out: Percent control / Zanubrutinib.

Another assay deals with STK39 (Homo sapiens, UniProt Q9UEW8). As to conditions: read-out: Percent control / Zanubrutinib.
For another assay, the target named is ULK2 (Homo sapiens, UniProt Q8IYT8). The following applies: read-out: Percent control / Zanubrutinib.
Sequence of ULK2 (Q8IYT8 whole entry): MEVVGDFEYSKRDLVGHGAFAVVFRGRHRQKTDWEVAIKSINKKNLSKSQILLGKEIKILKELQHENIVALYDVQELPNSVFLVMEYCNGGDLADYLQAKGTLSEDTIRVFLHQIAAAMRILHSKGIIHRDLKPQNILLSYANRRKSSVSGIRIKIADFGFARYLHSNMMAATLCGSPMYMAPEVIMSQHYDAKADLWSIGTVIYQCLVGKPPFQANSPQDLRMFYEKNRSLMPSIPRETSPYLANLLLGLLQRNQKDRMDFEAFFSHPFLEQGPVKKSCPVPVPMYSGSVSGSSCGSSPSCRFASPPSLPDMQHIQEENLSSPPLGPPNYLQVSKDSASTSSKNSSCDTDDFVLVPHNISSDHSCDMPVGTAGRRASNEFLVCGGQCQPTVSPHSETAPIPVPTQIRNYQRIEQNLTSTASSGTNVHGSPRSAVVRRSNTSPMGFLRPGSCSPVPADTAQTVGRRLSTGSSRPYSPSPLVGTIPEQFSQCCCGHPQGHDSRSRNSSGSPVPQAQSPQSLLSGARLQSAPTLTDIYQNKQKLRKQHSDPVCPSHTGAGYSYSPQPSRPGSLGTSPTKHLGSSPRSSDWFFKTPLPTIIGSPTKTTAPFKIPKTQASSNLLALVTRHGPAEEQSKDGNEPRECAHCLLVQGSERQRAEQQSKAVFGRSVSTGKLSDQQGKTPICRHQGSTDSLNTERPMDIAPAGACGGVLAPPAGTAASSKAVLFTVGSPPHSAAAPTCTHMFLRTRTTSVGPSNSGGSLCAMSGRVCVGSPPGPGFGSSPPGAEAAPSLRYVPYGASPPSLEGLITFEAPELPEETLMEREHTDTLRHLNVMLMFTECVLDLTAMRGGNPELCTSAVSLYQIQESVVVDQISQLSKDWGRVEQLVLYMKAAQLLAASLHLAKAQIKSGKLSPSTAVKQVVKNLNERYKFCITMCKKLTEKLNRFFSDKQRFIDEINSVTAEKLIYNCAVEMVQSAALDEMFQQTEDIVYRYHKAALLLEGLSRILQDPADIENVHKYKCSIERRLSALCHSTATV

Sequence of EGFR(G719C) (P00533 whole entry G719C): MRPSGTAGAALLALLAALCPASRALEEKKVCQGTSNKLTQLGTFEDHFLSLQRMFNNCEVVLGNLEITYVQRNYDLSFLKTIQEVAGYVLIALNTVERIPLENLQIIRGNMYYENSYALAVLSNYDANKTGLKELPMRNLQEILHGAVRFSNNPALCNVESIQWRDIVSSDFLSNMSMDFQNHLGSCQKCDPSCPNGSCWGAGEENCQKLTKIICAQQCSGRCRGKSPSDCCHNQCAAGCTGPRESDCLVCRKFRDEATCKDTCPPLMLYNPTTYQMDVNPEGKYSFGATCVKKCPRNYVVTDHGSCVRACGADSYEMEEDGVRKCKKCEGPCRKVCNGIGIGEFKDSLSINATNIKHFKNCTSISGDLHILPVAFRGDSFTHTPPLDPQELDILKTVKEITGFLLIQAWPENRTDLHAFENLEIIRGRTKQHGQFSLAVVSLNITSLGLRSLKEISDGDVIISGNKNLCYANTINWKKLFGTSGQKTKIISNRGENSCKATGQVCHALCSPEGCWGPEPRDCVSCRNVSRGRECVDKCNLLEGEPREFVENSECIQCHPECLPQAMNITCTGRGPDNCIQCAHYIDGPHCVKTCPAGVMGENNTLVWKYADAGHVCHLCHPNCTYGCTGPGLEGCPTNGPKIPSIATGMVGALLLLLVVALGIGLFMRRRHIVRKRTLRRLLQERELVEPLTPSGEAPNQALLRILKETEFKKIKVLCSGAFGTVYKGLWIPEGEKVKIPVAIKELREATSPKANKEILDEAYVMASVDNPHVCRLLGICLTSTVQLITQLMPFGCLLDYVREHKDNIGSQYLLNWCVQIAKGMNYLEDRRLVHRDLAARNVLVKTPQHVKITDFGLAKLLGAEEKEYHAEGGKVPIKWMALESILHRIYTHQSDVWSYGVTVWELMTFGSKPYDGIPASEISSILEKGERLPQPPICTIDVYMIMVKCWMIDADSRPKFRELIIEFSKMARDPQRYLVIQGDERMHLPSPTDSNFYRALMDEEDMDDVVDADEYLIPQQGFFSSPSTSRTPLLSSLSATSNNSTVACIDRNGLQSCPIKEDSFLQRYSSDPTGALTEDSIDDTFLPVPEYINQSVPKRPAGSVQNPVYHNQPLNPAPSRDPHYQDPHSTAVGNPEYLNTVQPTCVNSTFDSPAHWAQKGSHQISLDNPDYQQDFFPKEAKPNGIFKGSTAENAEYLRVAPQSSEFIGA
Sequence of PLK2 (Q9NYY3 whole entry): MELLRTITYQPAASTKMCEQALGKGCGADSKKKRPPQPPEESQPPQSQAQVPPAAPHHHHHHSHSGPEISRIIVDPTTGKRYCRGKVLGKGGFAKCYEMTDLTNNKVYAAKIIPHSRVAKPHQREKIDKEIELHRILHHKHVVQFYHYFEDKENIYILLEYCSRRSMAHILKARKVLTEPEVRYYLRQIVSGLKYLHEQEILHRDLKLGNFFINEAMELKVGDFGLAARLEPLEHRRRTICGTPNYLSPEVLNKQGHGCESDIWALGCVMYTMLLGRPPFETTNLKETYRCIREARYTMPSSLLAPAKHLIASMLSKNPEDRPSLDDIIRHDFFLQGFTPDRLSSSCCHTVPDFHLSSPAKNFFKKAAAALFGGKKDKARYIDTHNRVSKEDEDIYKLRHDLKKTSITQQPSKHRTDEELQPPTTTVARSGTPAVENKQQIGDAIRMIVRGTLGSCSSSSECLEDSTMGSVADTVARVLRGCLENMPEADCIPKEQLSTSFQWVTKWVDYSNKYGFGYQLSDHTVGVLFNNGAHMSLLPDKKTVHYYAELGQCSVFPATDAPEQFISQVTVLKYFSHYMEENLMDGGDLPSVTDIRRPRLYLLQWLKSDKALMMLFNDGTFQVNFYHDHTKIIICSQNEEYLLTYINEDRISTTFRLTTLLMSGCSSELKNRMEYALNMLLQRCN
Sequence of MYO3B (Q8WXR4 whole entry): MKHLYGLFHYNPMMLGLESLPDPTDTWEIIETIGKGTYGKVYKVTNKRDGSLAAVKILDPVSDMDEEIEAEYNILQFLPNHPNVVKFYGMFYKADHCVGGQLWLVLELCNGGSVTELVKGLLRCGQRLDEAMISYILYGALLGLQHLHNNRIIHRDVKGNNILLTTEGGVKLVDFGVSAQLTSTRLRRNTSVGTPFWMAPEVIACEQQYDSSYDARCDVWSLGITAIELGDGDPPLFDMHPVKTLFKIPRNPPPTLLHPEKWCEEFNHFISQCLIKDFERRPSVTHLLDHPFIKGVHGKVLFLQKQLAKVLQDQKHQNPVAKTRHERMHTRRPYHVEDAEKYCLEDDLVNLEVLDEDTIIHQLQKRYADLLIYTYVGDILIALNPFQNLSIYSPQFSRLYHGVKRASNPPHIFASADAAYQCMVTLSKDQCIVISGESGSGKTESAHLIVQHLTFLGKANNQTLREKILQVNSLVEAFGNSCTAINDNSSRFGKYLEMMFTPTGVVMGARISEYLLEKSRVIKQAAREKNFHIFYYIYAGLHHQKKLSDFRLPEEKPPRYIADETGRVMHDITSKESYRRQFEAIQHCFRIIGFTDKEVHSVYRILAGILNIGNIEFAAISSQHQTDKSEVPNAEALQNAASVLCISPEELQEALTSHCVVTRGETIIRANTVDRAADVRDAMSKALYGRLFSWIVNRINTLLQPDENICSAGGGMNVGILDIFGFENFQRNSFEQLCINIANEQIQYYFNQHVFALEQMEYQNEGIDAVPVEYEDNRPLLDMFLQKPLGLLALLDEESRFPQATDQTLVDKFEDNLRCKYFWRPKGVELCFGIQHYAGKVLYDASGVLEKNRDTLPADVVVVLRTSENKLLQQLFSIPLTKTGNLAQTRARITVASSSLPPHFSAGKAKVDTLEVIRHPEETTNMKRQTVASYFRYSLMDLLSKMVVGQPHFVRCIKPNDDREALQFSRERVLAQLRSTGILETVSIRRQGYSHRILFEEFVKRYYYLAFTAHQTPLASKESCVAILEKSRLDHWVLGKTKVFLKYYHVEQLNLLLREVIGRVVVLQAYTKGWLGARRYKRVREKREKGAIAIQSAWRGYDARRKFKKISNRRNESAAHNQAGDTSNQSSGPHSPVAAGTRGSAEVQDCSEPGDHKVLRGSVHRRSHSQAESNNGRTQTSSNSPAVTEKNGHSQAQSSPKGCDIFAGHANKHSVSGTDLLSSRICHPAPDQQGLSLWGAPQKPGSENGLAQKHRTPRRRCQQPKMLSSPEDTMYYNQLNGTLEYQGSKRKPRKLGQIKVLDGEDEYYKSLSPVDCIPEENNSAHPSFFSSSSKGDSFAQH

Consider `CC#CC(=O)N1CCC[C@H]1c1nc(-c2ccc(C(=O)Nc3ccccn3)cc2)c2c(N)nccn12` [Acalabrutinib], for which the remaining binding at 0.3 µM on ABL1-nonphosphorylated worked out at 87%; on CDK3 it was 88%; on CDK9, 94%; on CSNK1A1 it was 76%; at SIK2, 90%; on p38-gamma, 75%.

Consider `C=CC(=O)N1CCC[C@@H](n2nc(-c3ccc(Oc4ccccc4)cc3)c3c(N)ncnc32)C1` [Ibrutinib], for which the remaining binding at 0.3 µM at ALK was determined as 87%; at MYO3B, 80%.

As for `CC#CC(=O)N1CC[C@@H](n2c(=O)n(-c3ccc(Oc4ccccc4)cc3)c3c(N)ncnc32)C1` [Tirabrutinib], the remaining binding at 0.3 µM at EGFR(G719C) was found to be 54%; on EGFR(L747-T751del,Sins), 80%; on MARK1 it was 88%; on TLK2, 90%; at YES, 71%.

For `C=CC(=O)N1CCC([C@@H]2CCNc3c(C(N)=O)c(-c4ccc(Oc5ccccc5)cc4)nn32)CC1` [Zanubrutinib], the remaining binding at 0.3 µM at CDC2L5 is 99%; at MEK6, 75%; at MYLK2 it was 96%; at PCTK1, 100%; on PLK1 it was 100%; at PLK2 it was 100%. Moreover, the remaining binding at 0.3 µM was 85% at PRKG2, 100% at SIK, 96% on STK39 and 99% at ULK2.
